The numbers were not newly measured in patent US20240100117A1, “NUTRITION-BASED METHOD FOR MANAGING ANIMAL BEHAVIOR” (Morgenstern & Associates, LLC, priority 2022, published 2024), which cites them from elsewhere.

Each structure is given as a SMILES string.

For series [1] the following is noted: general reference values; at room temperature.
Series [2] relates to conversion of 5-HTP to serotonin. The settings on record: supplementation, primate animal models.

Consider `OCC(O)CO` [glycerin], for which, in series [1], the viscosity entry was “about 950 cP”.

As to `Cc1ncc(CO)c(CO)c1O` [vitamin B6, pyridoxine], the “conversion of 5-HTP to serotonin” value in series [2] is given as “increased the conversion of 5-HTP to serotonin”.

Turning to `O` [water], the viscosity result in series [1] is “about 1 cP”.
